Biological target: T1, recombinant human 17β-hydroxysteroid dehydrogenase type 1 (Homo sapiens, UniProt P14061)
T1 construct: made in house; host or cells: Sf9 insect cells (baculovirus, Bac to Bac Expression System)
T1 sequence (P14061 1-328): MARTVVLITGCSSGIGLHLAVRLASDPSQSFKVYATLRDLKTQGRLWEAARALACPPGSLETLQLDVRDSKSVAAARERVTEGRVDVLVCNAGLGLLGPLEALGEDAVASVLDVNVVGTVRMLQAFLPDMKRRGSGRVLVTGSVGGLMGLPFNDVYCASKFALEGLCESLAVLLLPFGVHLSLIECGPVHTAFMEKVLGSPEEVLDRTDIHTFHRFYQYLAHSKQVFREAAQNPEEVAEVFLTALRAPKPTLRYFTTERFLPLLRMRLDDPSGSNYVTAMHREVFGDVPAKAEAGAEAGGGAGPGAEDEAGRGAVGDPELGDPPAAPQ
Assay: Inhibition of recombinant human 17β-hydroxysteroid dehydrogenase type 1 (conversion of 3H-estrone to estradiol, HPLC)
Type: biochemical
Conditions: 30 nM 3H-estrone, 1 mM NADPH, 30 min at RT; for inhibition at 0.1 µM: inhibitor 100 nM, read-out: Inhibition of rec. 17β-HSD1 (% inhibition), 100 nM; for inhibition at 1 µM: inhibitor 1 μm, read-out: Inhibition of rec. 17β-HSD1 (% inhibition), 1 μm
Experimental: 1. Inhibition of the 17β-hydroxysteroid Dehydrogenase Type 1 Enzyme
17β-HSD1 Purification: Recombinant baculovirus was generated by the “Bac to Bac Expression System” (Invitrogen). Recombinant bacmid was transfected to Sf9 insect cells using “Cellfectin Reagent” (Invitrogen). 60 h later cells were harvested; the microsomal fraction was isolated as described by Puranen et al. 1994. Aliquots were stored frozen until determination of enzymatic activity.
Assay—Inhibition of Recombinant Human 17β-hydroxysteroid Dehydrogenase Type 1:
Recombinant protein (0.1 μg/ml) was incubated in 20 mM KH2PO4 pH 7.4 with 30 nM 3H-estrone and 1 mM NADPH for 30 min at RT, in the presence of potential inhibitors at concentrations of 1 μM or 0.1 μM. Inhibitor stock solutions were prepared in DMSO. Final concentration of DMSO was adjusted to 1% in all samples. The enzyme reaction was stopped by addition of 10% trichloroacetic acid (final concentration). Samples were centrifuged in a microtiter plate at 4000 rpm for 10 min. Supernatants were applied to reverse phase HPLC on a Waters Symmetry C18 column, equipped with a Waters Sentry Guard column. Isocratic HPLC runs were performed at RT at a flow rate of 1 ml/min of acetonitrile:water 48:52 as running solvent. Radioactivity was monitored in the eluate by a Packard Flow Scintillation Analyzer. Total radioactivity for estrone and estradiol were determined in each sample and percent conversion of estrone to estradiol was calculated according to the following formula:
Percent inhibition was calculated as follows: % inhibition=100−% conversion

Row | Compound | inhibition at 0.1 µM [%] | inhibition at 1 µM [%]
1 | C[C@]12CC[C@@H]3c4ccc(O)cc4CC[C@H]3[C@@H]1[C@@H](CCCC(=O)N1CCOCC1)CC2=O [Example 40, 3-Hydroxy-15α-(4-morpholin-4-yl-4-oxo-butyl)-estra-1,3,5(10)-trien-17-one] | 32.3 | 79.4
2 | C[C@]12CC[C@@H]3c4ccc(O)cc4CC[C@H]3[C@@H]1[C@@H](CNS(=O)(=O)c1cc(S(=O)(=O)c3ccccc3)cs1)CC2=O [Example 679] | 26.5 | 74.6
3 | COc1ccc2c(c1)CC[C@H]1[C@@H]3[C@H](CCCCNC(=O)Nc4ccc(OC)c(OC)c4)CC(=O)[C@@]3(C)CC[C@H]21 [Example 488] | 60.3 | 91.6
4 | COc1ccc2c(c1)CC[C@H]1[C@@H]3[C@H](CCCNC(=O)Nc4cccc5ccccc45)CC(=O)[C@@]3(C)CC[C@H]21 [Example 451] | 32.3 | 74.6
5 | COc1ccc2c(c1)CC[C@H]1[C@@H]3[C@H](CCCCCC(=O)NCc4ccncc4)CC(=O)[C@@]3(C)CC[C@H]21 [Example 357] | 31.1 | 85.2
6 | CN(C[C@H]1CC(=O)[C@@]2(C)CC[C@@H]3c4ccc(O)cc4CC[C@H]3[C@H]12)S(=O)(=O)c1ccc2ccccc2c1 [Example 681] | 39.7 | 87.1
7 | COc1ccc2c(c1)CC[C@H]1[C@@H]3[C@H](CCCCCC(=O)NCc4cccc(F)c4)CC(=O)[C@@]3(C)CC[C@H]21 [Example 361] | 35.8 | 84.2
8 | COc1ccc2c(c1)CC[C@H]1[C@@H]3[C@H](CCC(=O)NCc4ccc(Cl)cc4)CC(=O)[C@@]3(C)CC[C@H]21 [Example 323] | 28.5 | 72.7
9 | COc1ccc2c(c1)CCC1C2CC[C@]2(C)C(=O)C[C@@H](CCCC(=O)NCCc3c[nH]c4c(C)cccc34)C12 (stereo partly drawn) [Example 31] | 52.8 | 77.9
10 | COc1ccc2c(c1)CC[C@H]1[C@@H]3[C@H](CCCCCC(=O)NCCc4cccs4)CC(=O)[C@@]3(C)CC[C@H]21 [Example 366] | 56.3 | 94.4
11 | COc1ccc2c(c1)CC[C@H]1[C@@H]3[C@H](CCCCCC(=O)N4CCSCC4)CC(=O)[C@@]3(C)CC[C@H]21 [Example 355] | 34.4 | 85.1
12 | COc1ccc2c(c1)CC[C@H]1[C@@H]3[C@H](CCCCOC(=O)Nc4cccc(F)c4)CC(=O)[C@@]3(C)CC[C@H]21 [Example 751] | 27.7 | 67.7
13 | COc1ccc2c(c1)CC[C@H]1[C@@H]3[C@H](CCCCCC(=O)N4CCOCC4)CC(=O)[C@@]3(C)CC[C@H]21 [Example 354] | 28.7 | 80.3
14 | C[C@]12CC[C@@H]3c4ccc(O)cc4CC[C@H]3[C@@H]1[C@@H](CNS(=O)(=O)c1ccc([N+](=O)[O-])cc1)CC2=O [Example 667] | 30.3 | 72.3
15 | COc1ccc2c(c1)CCC1C2CC[C@]2(C)C(=O)C[C@@H](CCCC(=O)NCCc3cccs3)C12 (stereo partly drawn) [Example 29] | 29.6 | 69.3
16 | C[C@]12CC[C@@H]3c4ccc(O)cc4CC[C@H]3[C@@H]1[C@@H](CNS(=O)(=O)c1ccc(F)cc1)CC2=O [Example 665] | 54.6 | 91.2
17 | Cc1cccc2c(CCNC(=O)CCC[C@@H]3CC(=O)[C@@]4(C)CC[C@@H]5c6ccc(O)cc6CC[C@H]5[C@H]34)c[nH]c12 [Example 36, 4-(3-Hydroxy-17-oxo-estra-1,3,5(10)-trien-15β-yl)-N-[2-(7-methyl-1H-indol-3-yl)-ethyl]-butyramide] | 72.9 | 94.3
18 | COc1ccc(NC(=O)NCCCC[C@@H]2CC(=O)[C@@]3(C)CC[C@@H]4c5ccc(OC)cc5CC[C@H]4[C@H]23)cc1 [Example 471] | 28.7 | 77

Row | Compound | inhibition at 0.1 µM [%] | inhibition at 1 µM [%]
19 | CCOC(=O)Cc1csc(NC(=O)CC[C@@H]2CC(=O)[C@@]3(C)CC[C@@H]4c5ccc(OC)cc5CC[C@H]4[C@H]23)n1 [Example 314] | 33.6 | 62.1
20 | COc1ccc2c(c1)CC[C@H]1[C@@H]3[C@H](CCCOC(=O)Nc4ccc(Cl)c(Cl)c4)CC(=O)[C@@]3(C)CC[C@H]21 [Example 749] | 29.8 | 57.3
21 | Cc1cccc(S(=O)(=O)NC[C@H]2CC(=O)[C@@]3(C)CC[C@@H]4c5ccc(O)cc5CC[C@H]4[C@H]23)c1 [Example 677] | 36.9 | 83.7
22 | COc1ccc2c(c1)CC[C@H]1[C@@H]3[C@H](CCCCCC(=O)NCc4cccnc4)CC(=O)[C@@]3(C)CC[C@H]21 [Example 356] | 26.9 | 83.9
23 | COc1ccc2c(c1)CC[C@H]1[C@@H]3[C@H](CCC(=O)NCc4cccc(F)c4)CC(=O)[C@@]3(C)CC[C@H]21 [Example 322] | 45.7 | 66.3
24 | COc1ccc2c(c1)CC[C@H]1[C@@H]3[C@H](CCCCC(=O)NCc4ccccc4)CC(=O)[C@@]3(C)CC[C@H]21 [Example 340] | 51.4 | 91.9
25 | CNC(=O)CCC[C@@H]1CC(=O)[C@@]2(C)CC[C@@H]3c4ccc(O)cc4CC[C@H]3[C@H]12 [Example 4A, 4-(3-Hydroxy-17-oxo-estra-1,3,5(10)-trien-15β-yl)-N-methyl-butyramide] | 47.1 | 66
26 | C[C@]12CC[C@@H]3c4ccc(O)cc4CC[C@H]3[C@@H]1[C@H](CCCO)CC2=O [Example 823, 3-Hydroxy-15β-(3-Hydroxypropyl)-estra-1,3,5(10)-trien-17-one] | 76.1 | 97
27 | COc1ccc2c(c1)CC[C@H]1[C@@H]3[C@H](CCC(=O)NCCc4ccc(O)cc4)CC(=O)[C@@]3(C)CC[C@H]21 [Example 324] | 57.9 | 91.5
28 | COc1ccc2c(c1)CC[C@H]1[C@@H]3[C@H](CCCCCC(=O)NCc4ccc(Cl)cc4)CC(=O)[C@@]3(C)CC[C@H]21 [Example 362] | 35.1 | 75.1
29 | COc1ccc2c(c1)CC[C@H]1[C@@H]3[C@H](CCCCCC(=O)NCc4ccccc4)CC(=O)[C@@]3(C)CC[C@H]21 [Example 359] | 40.5 | 88.3
30 | COc1ccc2c(c1)CC[C@H]1[C@@H]3[C@H](CCCNC(=O)NC(C)C)CC(=O)[C@@]3(C)CC[C@H]21 [Example 449] | 26 | 82.7
31 | COc1ccc2c(c1)CC[C@H]1[C@@H]3[C@H](CCC(=O)NCCc4cccs4)CC(=O)[C@@]3(C)CC[C@H]21 [Example 327] | 28.7 | 77
32 | COc1ccc2c(c1)CC[C@H]1[C@@H]3[C@H](CCCOC(=O)Nc4ccc(C(F)(F)F)cc4)CC(=O)[C@@]3(C)CC[C@H]21 [Example 745] | 29.9 | 53.5
33 | COc1ccc2c(c1)CC[C@H]1[C@@H]3[C@H](CCCCC(=O)NCCc4cccs4)CC(=O)[C@@]3(C)CC[C@H]21 [Example 346] | 58.2 | 91.7
34 | CN(C[C@H]1CC(=O)[C@@]2(C)CC[C@@H]3c4ccc(O)cc4CC[C@H]3[C@H]12)S(=O)(=O)c1ccccc1 [Example 684] | 31.3 | 86.9
35 | COc1ccc2c(c1)CC[C@H]1[C@@H]3[C@H](CCC(=O)NCc4ccc5c(c4)OCO5)CC(=O)[C@@]3(C)CC[C@H]21 [Example 315] | 29 | 74.4
36 | CN(C[C@H]1CC(=O)[C@@]2(C)CC[C@@H]3c4ccc(O)cc4CC[C@H]3[C@H]12)S(=O)(=O)c1ccc(F)cc1 [Example 685] | 36 | 85.6

— patent US8088758B2, “17β-hydroxysteroid dehydrogenase type I inhibitors” (Abbott Products GmbH, priority 2003, dated 2012)
